Laboratory results published in the supplement of paper PMC10307832.

Tests used:
Test in all cases: relative viability (nuclei count vs DMSO), 5 days (fraction); higher = more cells survive
Entinostat + Dasatinib = compound: Nc1ccccc1NC(=O)c1ccc(CNC(=O)OCc2cccnc2)cc1 [Entinostat] + Cc1nc(Nc2ncc(C(=O)Nc3c(C)cccc3Cl)s2)cc(N2CCN(CCO)CC2)n1 [Dasatinib] (partner 0.075 µM)
Summary of the method: (§1)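 Lung cancer cell lines were pin-tool dosed in 1536-well plates on the day after seeding, with either a lone drug or a fixed anchor-drug dose plus five library-drug doses (not always all listed) in √10 steps. Nuclei were counted on 4× images after 5 days. Relative viability is the ratio of treated-well to vehicle-well nuclei counts, with each value a median of duplicate plates.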

Entinostat + Pemetrexed = compound: Nc1ccccc1NC(=O)c1ccc(CNC(=O)OCc2cccnc2)cc1 [Entinostat] + Nc1nc2[nH]cc(CCc3ccc(C(=O)N[C@@H](CCC(=O)O)C(=O)O)cc3)c2c(=O)[nH]1 [Pemetrexed] (partner 0.2 µM)
Summary of the method: as §1

Entinostat + Navitoclax = compound: Nc1ccccc1NC(=O)c1ccc(CNC(=O)OCc2cccnc2)cc1 [Entinostat] + CC1(C)CCC(c2ccc(Cl)cc2)=C(CN2CCN(c3ccc(C(=O)NS(=O)(=O)c4ccc(N[C@H](CCN5CCOCC5)CSc5ccccc5)c(S(=O)(=O)C(F)(F)F)c4)cc3)CC2)C1 [Navitoclax] (partner 0.5 µM)
Summary of the method: as §1

Entinostat + Foretinib = compound: Nc1ccccc1NC(=O)c1ccc(CNC(=O)OCc2cccnc2)cc1 [Entinostat] + COc1cc2c(Oc3ccc(NC(=O)C4(C(=O)Nc5ccc(F)cc5)CC4)cc3F)ccnc2cc1OCCCN1CCOCC1 [Foretinib] (partner 0.25 µM)
Summary of the method: as §1

Row | Cell Line | relative viability (Entinostat + Dasatinib; first compound 0.02 µM) | relative viability (Entinostat + Dasatinib; first compound 0.06325 µM) | relative viability (Entinostat + Dasatinib; first compound 0.2 µM) | relative viability (Entinostat + Dasatinib; first compound 0.6325 µM) | relative viability (Entinostat + Dasatinib; first compound 2 µM) | relative viability (Entinostat + Pemetrexed; first compound 0.02 µM) | relative viability (Entinostat + Pemetrexed; first compound 0.06325 µM) | relative viability (Entinostat + Pemetrexed; first compound 0.2 µM) | relative viability (Entinostat + Pemetrexed; first compound 0.6325 µM) | relative viability (Entinostat + Pemetrexed; first compound 2 µM) | relative viability (Entinostat + Navitoclax; first compound 0.02 µM) | relative viability (Entinostat + Navitoclax; first compound 0.06325 µM) | relative viability (Entinostat + Navitoclax; first compound 0.2 µM) | relative viability (Entinostat + Navitoclax; first compound 0.6325 µM) | relative viability (Entinostat + Navitoclax; first compound 2 µM) | relative viability (Entinostat + Foretinib; first compound 0.02 µM) | relative viability (Entinostat + Foretinib; first compound 0.06325 µM) | relative viability (Entinostat + Foretinib; first compound 0.2 µM) | relative viability (Entinostat + Foretinib; first compound 0.6325 µM) | relative viability (Entinostat + Foretinib; first compound 2 µM)
1 | BEN | 0.318 | 0.341 | 0.308 | 0.264 | 0.179 | 0.88 | 1.02 | 0.891 | 0.564 | 0.413 | 0.0534 | 0.0509 | 0.0495 | 0.0765 | 0.062 | 0.782 | 0.756 | 0.465 | 0.498 | 0.283
2 | CAL-12T | 0.571 | 0.427 | 0.375 | 0.295 | 0.218 | 1.17 | 1.09 | 1.49 | 1.21 | 0.676 | 1.22 | 1.17 | 1.41 | 1.22 | 1.08 | 1.17 | 1.14 | 1.27 | 1.07 | 1.01
3 | COR-L23 | 0.45 | 0.444 | 0.398 | 0.22 | 0.112 | 0.21 | 0.184 | 0.197 | 0.179 | 0.167 | 0.86 | 0.8 | 0.865 | 0.441 | 0.123 | 0.919 | 0.857 | 0.943 | 0.495 | 0.308
4 | COR-L 105 | 0.337 | 0.407 | 0.36 | 0.344 | 0.232 | 1.12 | 1.23 | 1.12 | 0.816 | 0.56 | 0.771 | 0.911 | 0.738 | 0.407 | 0.333 | 1.19 | 0.997 | 1.14 | 0.677 | 0.548
5 | ChaGo-K-1 | 0.709 | 0.554 | 0.671 | 0.526 | 0.553 | 0.269 | 0.262 | 0.271 | 0.264 | 0.259 | 1.23 | 1.04 | 1.11 | 0.783 | 0.679 | 1.06 | 0.914 | 0.893 | 0.842 | 0.673
6 | EKVX | 0.656 | 0.51 | 0.492 | 0.435 | 0.343 | 0.402 | 0.376 | 0.385 | 0.344 | 0.273 | 0.896 | 0.835 | 0.899 | 0.643 | 0.457 | 0.879 | 0.996 | 0.863 | 0.572 | 0.409
7 | EMC-BAC-2 | 0.349 | 0.318 | 0.298 | 0.177 | 0.109 | 0.434 | 0.432 | 0.416 | 0.361 | 0.341 | 1.21 | 1.15 | 1.25 | 0.968 | 0.642 | 1.03 | 0.938 | 0.814 | 0.608 | 0.513
8 | EPLC-272H | 0.364 | 0.417 | 0.289 | 0.195 | 0.2 | 0.391 | 0.322 | 0.304 | 0.244 | 0.248 | 1.12 | 0.956 | 0.979 | 0.424 | 0.365 | 0.684 | 0.783 | 0.512 | 0.243 | 0.223
